The record followed here is PMC12348105, “Pinene-Based Chiral Bipyridine Ligands Drive Potent Antibacterial Activity in Rhenium(I) Complexes” (Molecules, 2025).

The test system of experiment [1] is methicillin-resistant S. aureus (MRSA). Description: MIC determination against methicillin-resistant S. aureus (broth dilution, OD600). In kind it is cell-based, Staphylococcus aureus. Conditions: for MIC: 24 h, 37 °C. As to the method: (§1) The antimicrobial activity of the rhenium tricarbonyl mononuclear complexes and their corresponding pinene-bipyridine ligands was determined against two S. aureus strain: methicillin-resistant S. aureus (MRSA 43300) and methicillin-sensitive S. aureus (MSSA 25923). These microorganisms are responsible for most nosocomial infections. […] Their mechanism of action is not yet fully understood, but we hypothesized that their positive charge allows them to interact more easily with biomolecules than neutral complexes, and/or that they more strongly interact with the negatively charged cellular membrane.
(§2) The antimicrobial activity of the complexes was evaluated against two strains: Staphylococcus aureus SA113 (methicillin-susceptible, MSSA) and S. aureus MecA R2954 (methicillin-resistant, MRSA). Briefly, each complex was initially dissolved in sterile DMSO at a concentration of 10 mM to create a stock solution. The solutions were diluted with Mueller–Hinton Broth (MHB) culture medium and added (serial dilution) to the wells of a 96-well plate at final concentrations ranging from 100 µM to 0.2 µM. Simultaneously, bacterial cultures grown the previous day in non-cation-adjusted MHB (1×) were used to prepare suspensions at 1 × 10^6 CFU/mL. An equal volume (50 µL) of these bacterial suspensions was added to each well containing the diluted complexes, resulting in final bacterial and compound concentrations of 5 × 10^5 CFU/mL and 100 µM to 0.2 µM, respectively. The plates were incubated at 37 °C for 24 h. Minimum inhibitory concentrations (MICs) were determined by measuring optical density at 600 nm (OD600). All experiments were performed in triplicate.
For orientation: Dilution methods test growth across graded concentrations, often in twofold steps.

Experiment [2] deals with methicillin-sensitive S. aureus (MSSA). Description: MIC determination against methicillin-sensitive S. aureus (broth dilution, OD600). In kind it is cell-based, Staphylococcus aureus. Conditions: 24 h, 37 °C. Here is the method: as §1, §2
Experiment [3] deals with L929 mouse fibroblast cells. The experiment can be described thus: Cell toxicity, MTT assay. Conditions: 24 h treatment. In kind it is cell-based. Here is the method:
The cytotoxicity of the complexes was evaluated using L929 mouse fibroblast cells cultured in DMEM supplemented with 10% (v/v) fetal bovine serum (FBS), 1% (v/v) penicillin/streptomycin, and L-glutamine. Cytotoxicity was assessed using the standard MTT assay. Briefly, cells were seeded into 96-well plates at a density of 3.75 × 10^4 cells/mL and incubated for 24 h. The complexes, initially dissolved in DMSO, were diluted with culture medium and added to the wells at final concentrations ranging from 100 µM to 0.2 µM. After 24 h of treatment, MTT solution (5 mg/mL in PBS) diluted in fresh medium was added to each well at 25% of the total volume and incubated for an additional 4 h. Formazan crystals formed by metabolically active cells were then solubilized in a 1:1 (v/v) DMSO:ethanol solution. Control wells included untreated cells (100% viability). Relative cell viability was calculated by comparing absorbance values to those of the untreated control.
(Formazan colour is commonly taken as a measure of viable cells.)

≈ marks a conversion by molar mass, not a printed value.

As for `N#CC(C#N)=NNc1cccc(Cl)c1` [CCCP], the “MIC of positive control” value in experiment [1] (S. aureus, concentration stated as 1× MIC) stood at 12.5 µM.
As a reminder, the MIC is the least concentration at which growth counts as inhibited. High values mean weaker potency, low ones greater potency. [Re(CO)3(bpy)(Py)](OTf): the minimal inhibitory concentration (MIC) in experiment [2] and in experiment [1] (MRSA) was 100 µM in each case.
Usually IC50 stands for the concentration needed to halve the response being measured. Read a low IC50 as higher potency. Turning to `CC1(C)[C@H]2Cc3nc(-c4ccccn4)ccc3[C@@H]1C2` [5,6-pinbpy, (−)-5,6-pinene bipyridine], the minimum inhibitory concentration (MIC) in experiment [2] (Staphylococcus aureus) came to 3.13 µM (≈ 0.784 µg/mL); in experiment [1] (Staphylococcus aureus, MRSA) it was 3.13 µM (≈ 0.784 µg/mL). This compound also yielded an IC50 in experiment [3] of 2.5 to 5 µM.
As for `CC1(C)[C@H]2Cc3cc(-c4ccccn4)ncc3[C@@H]1C2` [4,5-pinbpy, (−)-4,5-pinene bipyridine], the MIC was found to be 3.13 µM (≈ 0.784 µg/mL) in experiment [2] (Staphylococcus aureus) and 3.13 µM (≈ 0.784 µg/mL) in experiment [1] (Staphylococcus aureus, MRSA). In addition, in experiment [3], the concentration for half-maximal inhibition (IC50) fell in the range of 2.5 to 5 µM.
For the compound [Re(CO)3(bpy)Br], the minimal inhibitory concentration (MIC) in experiment [2] and in experiment [1] (MRSA) was over 50 µM each time. In addition, the “MIC higher than that of C2Br” value in experiment [1] (MRSA, same core structure) is recorded as about 10 fold.
